Test results published in patent publication US5214165A, “Compounds useful as intermediates in the synthesis of shikimic acid derivatives” (Imperial Chemical Industries PLC, priority 1989, dated 1993).
Converted amounts (≈) assume the structure as drawn. Read-outs that look alike come from different tables or passages of the source.

Assays:
carrot cells [1] = assay: standard carrot cell test for herbicidal activity; format: cell-based; settings: carrot cells in liquid culture, shake flasks, 25° C.
Method: 5) In a standard test for herbicidal activity carrot cells were grown in shake flasks at 25° C. in liquid culture (Murashige and Skoog media with 0.2 mg/liter of kinetin and 0.1 mg/liter of 2.4 dichlorophenoxyacetic acid). The growth of cells was measured and an IC50 value obtained for compounds which were added in water.

Klebsiella pneumoniae [2] = assay: interaction with sulphamethoxazole, disc approximation method; format: cell-based
Method: (§1) 3) The interaction of 6-fluoroshikimate (racemic mixture) with a representative sulphonamide (sulphamethoxazole) was tested using both a disc approximation method and chequerboard titration.

Enterobacter cloacae [3] = assay: as above; format: cell-based
Method: as §1

E. coli K12 [4] = assay: as above; format: cell-based
Method: as §1

E. coli K12 [5] = assay: interaction with sulphamethoxazole, chequerboard titration; format: cell-based
Method: as §1

E. coli 341094 = assay: mouse protection test; format: in vivo; parameters: unit not given beside the values; settings: mice
S. aureus 601055 = assay: mouse protection test; format: in vivo; parameters: unit not given beside the values; settings: mice
E. coli N99 [6] = assay: disc diffusion antibacterial activity, zones of inhibition; format: cell-based; settings: Escherichia coli; for zone of inhibition at 1.5 µg/disc: 1.5 μg applied on to disc
Method: (§2) 1) Antimicrobial activity was assessed in vitro using a disc diffusion method and a method wherein the test compound was in agar. Both methods employed the use of Davis and Mingioli (J. Bact (1950) 60 17-28) glucose agar.
i) The disc diffusion method used an overnight culture of E. coli N99 in Davis and Mingioli broth as an ioculum for the agar (e.g. 500 μl/100 ml agar). Test compounds were dissolved in distilled water and placed on to a 6 mm diameter disc which had just been applied to the agar surface. The plates were then incubated for 16 hours at 37° C. Using this method the following zones of inhibition were observed.

E. coli N99 [7] = assay: mouse protection test; format: in vivo; parameters: unit not given beside the values; settings: mice
Method: 4) The in vivo efficacy of the fluoroshikimate was determined by the use of a mouse protection test. Male mice (18-20 g) were inoculated intraperitoneally with ten times the previously determined LD50 for E. coli N99 in 0.4 ml of hog gastric mucin (12%). Immediately after infection the mice were dosed with 0.2 ml of test compound either subcutaneously, per os or intraperitoneally. Based on the number of survivors at day 4 post infection, PD50 values were calculated by LOGIT analysis.

Bacillus subtilis = assay: test compound in agar method, MIC; format: cell-based; settings: glucose agar, 16 hours at 37° C., read-out: MIC (minimum inhibitory concentration)
Method: as §2
(§3) ii) The "test compound in agar" method studied 6-α-fluoroshikimate at various final concentration in the agar (i.e. between 0 and 500 μg/ml) to obtain MIC (minimum inhibitory concentration) values for nine different bacterial cultures. Cultures were grown in Davis and Mingioli broth for 16 hours at 37° C. and diluted in fresh Davis and Mingioli broth to give 10^6 cells/ml. 1 μl volume of each culture was applied to the surface of each agar plate containing 6-α-fluoroshikimate and the plates were then incubated for 16 hours at 37° C. before each inoculation spot was visually assessed for growth. Using this technique the following results were observed: […]

E. coli. B = assay: test compound in agar method, MIC; format: cell-based; settings: Escherichia coli, glucose agar, 16 hours at 37° C., read-out: MIC (minimum inhibitory concentration)
Method: as §2, §3

Klebsiella pneumoniae [8] = assay: test compound in agar method, MIC; format: cell-based; settings: glucose agar, 16 hours at 37° C., read-out: MIC (minimum inhibitory concentration)
Method: as §2, §3

Serratia marcescens = assay: test compound in agar method, MIC; format: cell-based; settings: glucose agar, 16 hours at 37° C., read-out: MIC (minimum inhibitory concentration)
Method: as §2, §3

E. coli. N99 = assay: test compound in agar method, MIC; format: cell-based; settings: Escherichia coli, glucose agar, 16 hours at 37° C., read-out: MIC (minimum inhibitory concentration)
Method: as §2, §3

[9] = system: Pseudomonas aeruginosa 799/wt; assay: test compound in agar method, MIC; format: cell-based; settings: glucose agar, 16 hours at 37° C., read-out: MIC (minimum inhibitory concentration)
Method: as §2, §3

Enterobacter cloacae [10] = assay: test compound in agar method, MIC; format: cell-based; settings: glucose agar, 16 hours at 37° C., read-out: MIC (minimum inhibitory concentration)
Method: as §2, §3

Bacillus licheniformis = assay: test compound in agar method, MIC; format: cell-based; settings: glucose agar, 16 hours at 37° C., read-out: MIC (minimum inhibitory concentration)
Method: as §2, §3

[11] = system: Klebsiella pneumoniae ATCC 25304; assay: test compound in agar method, MIC; format: cell-based; settings: ATCC25304, glucose agar, 16 hours at 37° C., read-out: MIC (minimum inhibitory concentration)
Method: as §2, §3

S. dublin 369001 = assay: mouse protection test; format: in vivo; parameters: unit not given beside the values; settings: mice
E. coli N99 [12] = assay: reversal studies of growth inhibition by 6α-fluoroshikimate; format: cell-based; settings: in presence of 6α-fluoroshikimate; for Effect on the E. coli N99 inhibited growth: agent (each) at 100.0 μg/ml final well concentration, result in words
Method: 2) Reversal studies were performed by adding agents to an E. coli N99 (Davis and Mingioli broth) 10^6 cells/ml. suspension in the presence of 6α-fluoroshikimate and the bacterial growth assessed by the use of a spectrophotometer (Absorbance 540 nm)
Inhibition of bacterial growth was reversed by paraaminobenzoic acid (PABP) but degrees of counter reversion were seen after the addition of aromatic amino acid types. Using this technique the following results were observed: […]

carrot cells [13] = settings: well-known herbicide, in words; cited from earlier work
[14] = 16 hours at 37° C. (α: hazy zone), read-out: mm diameter zones of inhibition vs. E. coli N99

## O=C(O)C1=CC(O)C(O)C(O)C1F (racemic) [6-fluoroshikimate (racemic mixture)]
Carrot cells [1]
  IC50 (growth of carrot cells): 1.5 μ/ml
Klebsiella pneumoniae [2]
  synergistic interaction with sulphamethoxazole: synergistic interaction
Enterobacter cloacae [3]
  synergistic interaction with sulphamethoxazole: synergistic interaction
E. coli K12 [4]
  synergistic interaction with sulphamethoxazole: synergistic interaction
E. coli K12 [5]
  synergistic interaction with sulphamethoxazole: synergistic interaction was confirmed

## O=C(O)C1=C[C@@H](O)[C@@H](O)[C@H](O)[C@H]1F [6-α-fluoroshikimate, (3R,4R,5S,6S)6-α-Fluoroshikimic acid]
E. coli 341094; per os
  PD50 (day 4): 13.4
E. coli 341094; subcutaneous
  PD50 (day 4): 23.2
S. aureus 601055; per os
  PD50 (day 4): 20
S. aureus 601055; subcutaneous
  PD50 (day 4): 20
E. coli N99 [6]; 0.025 μg applied on to disc, 16 hours at 37° C., read-out: mm diameter zones of inhibition vs. E. coli N99
  zone of inhibition at 0.025 µg/disc: 0 mm
E. coli N99 [6]; 0.05 μg applied on to disc, 16 hours at 37° C., hazy, read-out: mm diameter zones of inhibition vs. E. coli N99
  zone of inhibition at 0.05 µg/disc: 10 mm
E. coli N99 [6]; [14]
  zone of inhibition at 1.5 µg/disc: 29 mm
E. coli N99 [6]; 16 hours at 37° C., inner clear, read-out: mm diameter zones of inhibition vs. E. coli N99, inner clear zone
  zone of inhibition at 1.5 µg/disc: 23 mm
E. coli N99 [7]; intraperitoneal
  PD50 (day 4): > 10
E. coli N99 [7]; per os
  PD50 (day 4): 8.6
E. coli N99 [7]; subcutaneous
  PD50 (day 4): 4.6
Bacillus subtilis
  MIC: 50 µg/mL (≈ 260 µM)
E. coli. B
  MIC: 1 µg/mL (≈ 5.2 µM)
Klebsiella pneumoniae [8]
  MIC: 5 µg/mL (≈ 26 µM)
Serratia marcescens
  MIC: > 500 µg/mL
E. coli. N99
  MIC: 0.1 µg/mL (≈ 0.52 µM)
[9]
  MIC: > 500 µg/mL
Enterobacter cloacae [10]
  MIC: 50 µg/mL (≈ 260 µM)
Bacillus licheniformis
  MIC: > 500 µg/mL
[11]
  MIC: 1 µg/mL (≈ 5.2 µM)
S. dublin 369001; per os
  PD50 (day 4): 50
S. dublin 369001; subcutaneous
  PD50 (day 4): 20

## O=C(O)C1=C[C@@H](O)[C@@H](O)[C@H](O)[C@@H]1F [6-β-fluoroshikimate, (3R,4R,5S,6R)6-β-Fluoroshikimic acid]
E. coli N99 [6]; [14]
  zone of inhibition at 1.5 µg/disc: 0 mm
E. coli N99 [6]; 3.0 μg applied on to disc, 16 hours at 37° C., very hazy, read-out: mm diameter zones of inhibition vs. E. coli N99
  zone of inhibition at 3 µg/disc: 13 mm
E. coli N99 [6]; 30.0 μg applied on to disc, 16 hours at 37° C., very hazy, read-out: mm diameter zones of inhibition vs. E. coli N99
  zone of inhibition at 30 µg/disc: 26 mm

## N[C@@H](Cc1ccccc1)C(=O)O [L-Phenyl alanine]
E. coli N99 [12]
  Effect on the E. coli N99 inhibited growth: No reversion

## N[C@@H](Cc1c[nH]c2ccccc12)C(=O)O [L-tryptophan]
E. coli N99 [12]
  Effect on the E. coli N99 inhibited growth: No reversion

## N[C@@H](Cc1ccc(O)cc1)C(=O)O [L-tyrosine]
E. coli N99 [12]
  Effect on the E. coli N99 inhibited growth: No reversion

## Nc1ccc(C(=O)O)cc1 [PABA, paraaminobenzoic acid]
E. coli N99 [12]; Absorbance 540 nm
  Inhibition of bacterial growth reversed: reversed

## O=C(O)CNCP(=O)(O)O [glyphosate]
Carrot cells [13]
  activity in the standard carrot cell test: active
